According to publication PMC9090415, “Discovery of small molecule inhibitors of Plasmodium falciparum apicoplast DNA polymerase” (Journal of Enzyme Inhibition and Medicinal Chemistry, 2022):

Target: T1, bacteriophage T4 DNA polymerase (Enterobacteria phage T4, UniProt P04415)
T1 construct: made in house
T1 sequence (P04415 1-898): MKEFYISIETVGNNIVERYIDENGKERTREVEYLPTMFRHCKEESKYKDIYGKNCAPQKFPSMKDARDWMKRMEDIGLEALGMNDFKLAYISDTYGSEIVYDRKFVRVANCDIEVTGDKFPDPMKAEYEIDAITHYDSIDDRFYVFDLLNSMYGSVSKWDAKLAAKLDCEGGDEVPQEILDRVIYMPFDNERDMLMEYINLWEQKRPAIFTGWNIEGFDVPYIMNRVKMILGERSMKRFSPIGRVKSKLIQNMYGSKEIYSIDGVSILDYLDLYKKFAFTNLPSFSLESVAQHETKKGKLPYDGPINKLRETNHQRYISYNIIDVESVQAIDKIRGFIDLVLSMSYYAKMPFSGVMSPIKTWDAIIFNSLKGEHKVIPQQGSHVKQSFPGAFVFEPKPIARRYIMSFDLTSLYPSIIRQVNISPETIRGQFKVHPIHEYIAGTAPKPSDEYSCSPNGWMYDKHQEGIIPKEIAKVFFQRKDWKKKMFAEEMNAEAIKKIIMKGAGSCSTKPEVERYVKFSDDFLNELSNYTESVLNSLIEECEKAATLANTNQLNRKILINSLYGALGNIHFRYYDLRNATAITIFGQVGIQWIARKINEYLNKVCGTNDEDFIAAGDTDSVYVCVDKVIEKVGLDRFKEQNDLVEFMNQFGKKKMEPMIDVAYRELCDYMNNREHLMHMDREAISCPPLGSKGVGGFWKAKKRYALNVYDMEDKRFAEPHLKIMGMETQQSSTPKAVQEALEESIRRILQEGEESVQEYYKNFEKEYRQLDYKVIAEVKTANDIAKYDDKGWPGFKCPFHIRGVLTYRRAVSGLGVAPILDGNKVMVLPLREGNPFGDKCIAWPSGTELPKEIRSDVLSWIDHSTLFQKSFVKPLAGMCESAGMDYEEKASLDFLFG
Test: Counter-screen against bacteriophage T4 DNA polymerase
Assay type: biochemical
Details: for % inhibition T4 10' 2.5 / % inhibition T4 10' 5 / % inhibition T4 10' 10 / % inhibition T4 10' 20 / % inhibition T4 10' 40 / % inhibition T4 10' 80: read at 10'; for % inhibition T4 10' 2.5 / % inhibition T4 70' 2.5 / % inhibition T4 130' 2.5 / % inhibition T4 40' 2.5 / % inhibition T4 90' 2.5 / % inhibition T4 180' 2.5: concentration 2.5; for % inhibition T4 10' 5 / % inhibition T4 70' 5 / % inhibition T4 130' 5 / % inhibition T4 40' 5 / % inhibition T4 90' 5 / % inhibition T4 180' 5: concentration 5; for % inhibition T4 10' 10 / % inhibition T4 70' 10 / % inhibition T4 130' 10 / % inhibition T4 40' 10 / % inhibition T4 90' 10 / % inhibition T4 180' 10: concentration 10; for % inhibition T4 10' 20 / % inhibition T4 70' 20 / % inhibition T4 130' 20 / % inhibition T4 40' 20 / % inhibition T4 90' 20 / % inhibition T4 180' 20: concentration 20; for % inhibition T4 10' 40 / % inhibition T4 70' 40 / % inhibition T4 130' 40 / % inhibition T4 40' 40 / % inhibition T4 90' 40 / % inhibition T4 180' 40: concentration 40; for % inhibition T4 10' 80 / % inhibition T4 70' 80 / % inhibition T4 130' 80 / % inhibition T4 40' 80 / % inhibition T4 90' 80 / % inhibition T4 180' 80: concentration 80; for % inhibition T4 70' 2.5 / % inhibition T4 70' 5 / % inhibition T4 70' 10 / % inhibition T4 70' 20 / % inhibition T4 70' 40 / % inhibition T4 70' 80: read at 70'; for % inhibition T4 130' 2.5 / % inhibition T4 130' 5 / % inhibition T4 130' 10 / % inhibition T4 130' 20 / % inhibition T4 130' 40 / % inhibition T4 130' 80: read at 130'; for % inhibition T4 40' 2.5 / % inhibition T4 40' 5 / % inhibition T4 40' 10 / % inhibition T4 40' 20 / % inhibition T4 40' 40 / % inhibition T4 40' 80: read at 40'; for % inhibition T4 90' 2.5 / % inhibition T4 90' 5 / % inhibition T4 90' 10 / % inhibition T4 90' 20 / % inhibition T4 90' 40 / % inhibition T4 90' 80: read at 90'; for % inhibition T4 180' 2.5 / % inhibition T4 180' 5 / % inhibition T4 180' 10 / % inhibition T4 180' 20 / % inhibition T4 180' 40 / % inhibition T4 180' 80: read at 180'
Procedure, shortened: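 Purified T4 DNA polymerase, a B-family enzyme, served as the counter-screen enzyme. Compounds were tested in dose-response format and IC50 values were derived.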

In the case of CC(C)CC(C(=O)O)N1C(=O)C2C3C=CC(C2C1=O)C1C(=O)N(C(CC(C)C)C(=O)O)C(=O)C31 (stereo not drawn) [KU0193449], the “% inhibition T4 10' 2.5” value (DRC-1) is reported as 3.278%, the “% inhibition T4 10' 5” value (DRC-1) is reported as 4.491% and the “% inhibition T4 10' 10” value (DRC-1) is reported as 8.777%. For the same compound, the “% inhibition T4 10' 20” value (DRC-1) was 7.866%, the “% inhibition T4 10' 40” value (DRC-1) was 21.6809% and the “% inhibition T4 10' 80” value (DRC-1) was 52.1619%. The “% inhibition T4 70' 2.5” value (DRC-1) was 0.3673%, the “% inhibition T4 70' 5” value (DRC-1) was 1.3204% and the “% inhibition T4 70' 10” value (DRC-1) was 2.619%. For the same compound, the “% inhibition T4 70' 20” value (DRC-1) was 3.878%, the “% inhibition T4 70' 40” value (DRC-1) was 15.5336% and the “% inhibition T4 70' 80” value (DRC-1) was 40.8979%. For the same compound, the “% inhibition T4 130' 2.5” value (DRC-1) was -2.364%, the “% inhibition T4 130' 5” value (DRC-1) was -1.909% and the “% inhibition T4 130' 10” value (DRC-1) was -0.6043%. The “% inhibition T4 130' 20” value (DRC-1) was 0.2689%, the “% inhibition T4 130' 40” value (DRC-1) was 11.2312% and the “% inhibition T4 130' 80” value (DRC-1) was 34.0378%. For the same compound, the “% inhibition T4 10' 2.5” value (DRC-2) was 4.54%, the “% inhibition T4 10' 5” value (DRC-2) was 4.24% and the “% inhibition T4 10' 10” value (DRC-2) was 10%. For the same compound, the “% inhibition T4 10' 20” value (DRC-2) was 15%, the “% inhibition T4 10' 40” value (DRC-2) was 28% and the “% inhibition T4 10' 80” value (DRC-2) was 55%. The “% inhibition T4 40' 2.5” value (DRC-2) was 4.54%, the “% inhibition T4 40' 5” value (DRC-2) was 4.24% and the “% inhibition T4 40' 10” value (DRC-2) was 10%. The “% inhibition T4 40' 20” value (DRC-2) was 15%, the “% inhibition T4 40' 40” value (DRC-2) was 28% and the “% inhibition T4 40' 80” value (DRC-2) was 55%. The “% inhibition T4 90' 2.5” value (DRC-2) was 4%, the “% inhibition T4 90' 5” value (DRC-2) was 3% and the “% inhibition T4 90' 10” value (DRC-2) was 7%. For the same compound, the “% inhibition T4 90' 20” value (DRC-2) was 11%, the “% inhibition T4 90' 40” value (DRC-2) was 24% and the “% inhibition T4 90' 80” value (DRC-2) was 52%. The “% inhibition T4 180' 2.5” value (DRC-2) was -1%, the “% inhibition T4 180' 5” value (DRC-2) was -1.88% and the “% inhibition T4 180' 10” value (DRC-2) was 0.586%. The “% inhibition T4 180' 20” value (DRC-2) was 2.64%, the “% inhibition T4 180' 40” value (DRC-2) was 15% and the “% inhibition T4 180' 80” value (DRC-2) was 45%.

With COc1ccccc1CC(=O)N1CCc2c(nc3cc(-c4ccccc4Cl)[nH]n3c2=O)C1 [Molecule 49, COc1ccccc1CC(=O)N1CCc2c(C1)nc1n(c2=O)[nH]c(c1)c1ccccc1Cl] the “% inhibition T4 10' 2.5” value (DRC-1) was -1.17%, the “% inhibition T4 10' 5” value (DRC-1) was -4% and the “% inhibition T4 10' 10” value (DRC-1) was -5.62%. The “% inhibition T4 10' 20” value (DRC-1) was -14%, the “% inhibition T4 10' 40” value (DRC-1) was -19% and the “% inhibition T4 10' 80” value (DRC-1) was -3%. For the same compound, the “% inhibition T4 70' 2.5” value (DRC-1) was -2.29%, the “% inhibition T4 70' 5” value (DRC-1) was -6% and the “% inhibition T4 70' 10” value (DRC-1) was -6%. The “% inhibition T4 70' 20” value (DRC-1) was -13%, the “% inhibition T4 70' 40” value (DRC-1) was -18% and the “% inhibition T4 70' 80” value (DRC-1) was -7%. For the same compound, the “% inhibition T4 130' 2.5” value (DRC-1) was -4%, the “% inhibition T4 130' 5” value (DRC-1) was -6% and the “% inhibition T4 130' 10” value (DRC-1) was -5%. For the same compound, the “% inhibition T4 130' 20” value (DRC-1) was -12%, the “% inhibition T4 130' 40” value (DRC-1) was -13% and the “% inhibition T4 130' 80” value (DRC-1) was -11%. For the same compound, the “% inhibition T4 10' 2.5” value (DRC-2) was -1%, the “% inhibition T4 10' 5” value (DRC-2) was -28% and the “% inhibition T4 10' 10” value (DRC-2) was -40%. The “% inhibition T4 10' 20” value (DRC-2) was -50%, the “% inhibition T4 10' 40” value (DRC-2) was -55% and the “% inhibition T4 10' 80” value (DRC-2) was -54%. The “% inhibition T4 40' 2.5” value (DRC-2) was -2.7%, the “% inhibition T4 40' 5” value (DRC-2) was -24% and the “% inhibition T4 40' 10” value (DRC-2) was -34%. The “% inhibition T4 40' 20” value (DRC-2) was -45%, the “% inhibition T4 40' 40” value (DRC-2) was -51% and the “% inhibition T4 40' 80” value (DRC-2) was -47%. The “% inhibition T4 90' 2.5” value (DRC-2) was -4%, the “% inhibition T4 90' 5” value (DRC-2) was -22% and the “% inhibition T4 90' 10” value (DRC-2) was -31%. For the same compound, the “% inhibition T4 90' 20” value (DRC-2) was -41%, the “% inhibition T4 90' 40” value (DRC-2) was -49% and the “% inhibition T4 90' 80” value (DRC-2) was -47%. For the same compound, the “% inhibition T4 180' 2.5” value (DRC-2) was -9%, the “% inhibition T4 180' 5” value (DRC-2) was -24% and the “% inhibition T4 180' 10” value (DRC-2) was -28%. The “% inhibition T4 180' 20” value (DRC-2) was -39%, the “% inhibition T4 180' 40” value (DRC-2) was -47% and the “% inhibition T4 180' 80” value (DRC-2) was -46%.

Cc1ccsc1Cn1c(C)ccc1C [Molecule 70, Cc1ccsc1Cn1c(C)ccc1C] was tested, and the “% inhibition T4 10' 2.5” value (DRC-1) was -4.493%, the “% inhibition T4 10' 5” value (DRC-1) was -2.675% and the “% inhibition T4 10' 10” value (DRC-1) was 9.004%. For the same compound, the “% inhibition T4 10' 20” value (DRC-1) was 13.0915%, the “% inhibition T4 10' 40” value (DRC-1) was 20.7391% and the “% inhibition T4 10' 80” value (DRC-1) was -6.46%. The “% inhibition T4 70' 2.5” value (DRC-1) was -3.335%, the “% inhibition T4 70' 5” value (DRC-1) was -3.037% and the “% inhibition T4 70' 10” value (DRC-1) was 6.944%. For the same compound, the “% inhibition T4 70' 20” value (DRC-1) was 8.488%, the “% inhibition T4 70' 40” value (DRC-1) was 14.2763% and the “% inhibition T4 70' 80” value (DRC-1) was -12.9684%. For the same compound, the “% inhibition T4 130' 2.5” value (DRC-1) was -4.899%, the “% inhibition T4 130' 5” value (DRC-1) was -4.557% and the “% inhibition T4 130' 10” value (DRC-1) was 3.714%. The “% inhibition T4 130' 20” value (DRC-1) was 4.205%, the “% inhibition T4 130' 40” value (DRC-1) was 10.2962% and the “% inhibition T4 130' 80” value (DRC-1) was -25.7177%. For the same compound, the “% inhibition T4 10' 2.5” value (DRC-2) was -7%, the “% inhibition T4 10' 5” value (DRC-2) was -1.66% and the “% inhibition T4 10' 10” value (DRC-2) was 10%. The “% inhibition T4 10' 20” value (DRC-2) was 11%, the “% inhibition T4 10' 40” value (DRC-2) was 14% and the “% inhibition T4 10' 80” value (DRC-2) was 7.37%. For the same compound, the “% inhibition T4 40' 2.5” value (DRC-2) was -7%, the “% inhibition T4 40' 5” value (DRC-2) was -2% and the “% inhibition T4 40' 10” value (DRC-2) was 10%. For the same compound, the “% inhibition T4 40' 20” value (DRC-2) was 11%, the “% inhibition T4 40' 40” value (DRC-2) was 14% and the “% inhibition T4 40' 80” value (DRC-2) was 7%. The “% inhibition T4 90' 2.5” value (DRC-2) was -5%, the “% inhibition T4 90' 5” value (DRC-2) was -2.51% and the “% inhibition T4 90' 10” value (DRC-2) was 8%. For the same compound, the “% inhibition T4 90' 20” value (DRC-2) was 9%, the “% inhibition T4 90' 40” value (DRC-2) was 12% and the “% inhibition T4 90' 80” value (DRC-2) was 5%. The “% inhibition T4 180' 2.5” value (DRC-2) was -7%, the “% inhibition T4 180' 5” value (DRC-2) was -9% and the “% inhibition T4 180' 10” value (DRC-2) was 1.9%. The “% inhibition T4 180' 20” value (DRC-2) was 4%, the “% inhibition T4 180' 40” value (DRC-2) was 8% and the “% inhibition T4 180' 80” value (DRC-2) was 1.21%.
